Test results taken from patent US20260130933A1, “PHARMACEUTICAL COMPOSITION FOR PREVENTION OR TREATMENT OF NEPHROPATHY AND/OR DIABETES MELLITUS, COMPRISING ENAVOGLIFLOZIN” (DAEWOONG PHARMACEUTICAL CO., LTD., priority 2022, published 2026).

Assay: Example 3: phase 3 trial, enavogliflozin 0.3 mg vs dapagliflozin 10 mg once a day for 24 weeks added to metformin and gemigliptin in patients with type 2 diabetes (same endpoints, rescue drug)
Assay type: in vivo, human
Protocol: 1) when Metformin (≥1,000 mg/Day) was Administered at a Constant Dose for at Least 8 Weeks Prior to Pre-Visit (Pre-Screening) • Metformin (≥1,000 mg/day) and gemigliptin (50 mg/day) were co-administered during the 8-week stabilization period. […] 4) when Metformin (≥1,000 mg/Day) and Gemigliptin (50 mg/Day) were Co-Administered at Constant Doses for at Least 8 Weeks Prior to Pre-Visit (Prescreening) • Without a separate stabilization period, Pre-visit (pre-screening) was Visit 1 (screening).
Subjects who met the inclusion/exclusion criteria continued to receive metformin and gemigliptin while receiving a placebo of the clinical trial drug in a single-blind (subject-blinded) state for a 2-week run-in period.
Here, the randomized subjects were stratified according to the administration therapy (co-administration with two or less agents (one or two agents) or three or more agents) of a conventional hypoglycemic agent (before washout of another hypoglycemic agent) within 24 weeks prior to obtaining written informed consent and by an HbA1c value (<8% or ≥8%) at Visit 1 (screening) measured in the central laboratory.
The randomized subjects were administered two tablets of the clinical trial drug corresponding to each administration group once a day, and then visited the institution at weeks 6, 12, 18, and 24 during the 24-week administration period to conduct efficacy and safety assessments. In addition, during the clinical trial period, they were instructed to exercise regularly and control their diet without changing their daily life patterns.
• 1) Change in HbA1c at week 24 after administration of clinical trial drug compared to Visit 2 (randomization)
• 1) Change in HbA1c at each time point of weeks 6, 12, and 18 after administration of clinical trial drug compared to Visit 2 (randomization) • 2) Change in FPG at each time point of weeks 6, 12, 18, and 24 after administration of clinical trial drug compared to Visit 2 (randomization) • 3) Proportion of subjects achieving HbA1c<7% at each time point of weeks 6, 12, 18, and 24 after administration of clinical trial drug • 4) Proportion of subjects achieving HbA1c<6.5% at each time point of weeks 6, 12, 18, and 24 after administration of clinical trial drug • 5) Proportion of subjects achieving therapeutic response (HbA1c change (HbA1c at Visit 2—HbA1c at each evaluation time point)>0.5% or HbA1c<7% at each evaluation time point compared to Visit 2 (randomization)) at each time point of weeks 6, 12, 18, and 24 after administration of clinical trial drug • 6) Proportion of subjects achieving therapeutic response (HbA1c change (HbA1c at Visit 2—HbA1c at each evaluation time point)>0.7% or HbA1c<7% at each evaluation time point compared to Visit 2 (randomization)) at each time point of weeks 6, 12, 18, and 24 after administration of clinical trial drug • 7) Proportion of subjects achieving therapeutic response (HbA1c change (HbA1c at Visit 2—HbA1c at each evaluation time point)>1% or HbA1c<7% at each evaluation time point compared to Visit 2 (randomization)) at each time point of weeks 6, 12, 18, and 24 after administration of clinical trial drug

[1] = week 18, per-protocol set, enavogliflozin 0.3 mg, dapagliflozin 10 mg
[2] = week 24, modified per-protocol set 1, enavogliflozin 0.3 mg vs dapagliflozin 10 mg
[3] = week 24, modified per-protocol set 1, enavogliflozin 0.3 mg, dapagliflozin 10 mg
[4] = week 24, modified per-protocol set 2

OC[C@H]1O[C@@H](c2cc(Cc3ccc(C4CC4)cc3)c(Cl)c3c2CCO3)[C@H](O)[C@@H](O)[C@@H]1O [Enavogliflozin, (2S,3R,4R,5S,6R)-2-(7-chloro-6 (4-cyclopropylbenzyl)-2,3-dihydrobenzofuran-4-yl)-6-(hydroxymethyl)tetrahydro-2H-pyran-3,4,5-triol]
HbA1c, Median [1]: 6.87%
Subjects achieving HbA1c target of <6.5%, (%) [1]: 14.53%
Subjects achieving HbA1c target of <7%, % [1]: 63.25%
body weight, Median [1]: 65.40 kg
Subjects achieving therapeutic glycemic response 2, % (week 18, per-protocol set, response 2 = HbA1c change >0.7% or HbA1c <7%, enavogliflozin 0.3 mg, dapagliflozin 10 mg): 77.78%
Subjects achieving therapeutic glycemic response 3, % (week 18, per-protocol set, response 3 = HbA1c change >1% or HbA1c <7%, enavogliflozin 0.3 mg, dapagliflozin 10 mg): 74.36%
FPG change from baseline, LS mean (SE) (week 24): −27.21(1.81) mg/dL
HDL-C change from baseline, LS mean (SE) (week 24): 4.32(0.71) mg/dL
HOMA-IR change from baseline, LS mean (SE) (week 24): −1.09(0.11)
HOMA-β change from baseline, LS mean (SE) (week 24): 1.09(4.79)
HbA1c change from baseline, LS mean (SE) (week 24): −0.92(0.05) % p
HbA1c change from baseline, Mean (SD) (week 24): −0.93(0.70) % p
LDL-C change from baseline, LS mean (SE) (week 24): 0.85(1.89) mg/dL
UACR change from baseline, LS mean (SE) (week 24): −15.34 (3.93) g/kg
UGCR change from baseline, LS mean (SE) (week 24): 60.22(2.31) mg/mg
adiponectin change from baseline, LS mean (SE) (week 24): 1.42(0.35) μg/mL
body weight change from baseline, LS mean (SE) (week 24): −3.15(0.23) kg
diastolic blood pressure change from baseline, LS mean (SE) (week 24): −2.55(0.72) mmHg
fasting C-peptide change from baseline, LS mean (SE) (week 24): −0.09(0.02) ng/ml
leptin change from baseline, LS mean (SE) (week 24): −1.46(0.52) ng/mL
systolic blood pressure change from baseline, LS mean (SE) (week 24): −4.49(0.96) mmHg
total cholesterol change from baseline, LS mean (SE) (week 24): 4.48(2.07) mg/dL
triglyceride change from baseline, LS mean (SE) (week 24): −8.22(4.01) mg/dL
Odds ratio for administering the rescue drug (week 24, FAS, vs dapagliflozin): 0.36
FPG change from baseline, LS mean difference (week 24, vs dapagliflozin): -3.49 mg/dL
HDL-C change from baseline, LS mean difference (week 24, vs dapagliflozin): -0.08 mg/dL
HOMA-IR change from baseline, LS mean difference (week 24, vs dapagliflozin): −0.16
HOMA-β change from baseline, LS mean difference (week 24, vs dapagliflozin): −4.69
HbA1c change from baseline, LS mean difference (week 24, vs dapagliflozin): −0.06 % p
LDL-C change from baseline, LS mean difference (week 24, vs dapagliflozin): -2.27 mg/dL
Odds ratio for achieving HbA1c<6.5% (week 24, vs dapagliflozin): 1.27
Odds ratio for achieving HbA1c<7% (week 24, vs dapagliflozin): 1.17
Odds ratio, therapeutic response (HbA1c change >0.5% or HbA1c<7%) (week 24, vs dapagliflozin): 1.15
Odds ratio, therapeutic response (HbA1c change >0.7% or HbA1c<7%) (week 24, vs dapagliflozin): 0.98
Odds ratio, therapeutic response (HbA1c change >1% or HbA1c<7%) (week 24, vs dapagliflozin): 1.22
UACR change from baseline, LS mean difference (week 24, vs dapagliflozin): 0.79 g/kg
UGCR change from baseline, LS mean difference (week 24, vs dapagliflozin): 16.71 mg/mg
adiponectin change from baseline, LS mean difference (week 24, vs dapagliflozin): 0.49 µg/mL
body weight change from baseline, LS mean difference (week 24, vs dapagliflozin): -0.15 kg
diastolic blood pressure change from baseline, LS mean difference (week 24, vs dapagliflozin): −0.66 mmHg
fasting C-peptide change from baseline, LS mean difference (week 24, vs dapagliflozin): -0.01 ng/mL
leptin change from baseline, LS mean difference (week 24, vs dapagliflozin): -0.89 ng/mL
systolic blood pressure change from baseline, LS mean difference (week 24, vs dapagliflozin): −0.22 mmHg
total cholesterol change from baseline, LS mean difference (week 24, vs dapagliflozin): -1.09 mg/dL
triglyceride change from baseline, LS mean difference (week 24, vs dapagliflozin): 0.56 mg/dL
Change from baseline in HDL-C, ANCOVA LS mean difference [2]: -0.08 mg/dL
Change from baseline in LDL-C, ANCOVA LS mean difference [2]: -2.27 mg/dL
Change from baseline in total cholesterol, ANCOVA LS mean difference [2]: -1.09 mg/dL
Change from baseline in triglycerides, ANCOVA LS mean difference [2]: 0.56 mg/dL
Change from baseline in HDL-C, ANCOVA LS mean [3]: 4.32 mg/dL
Change from baseline in HDL-C, Mean [3]: 4.53 mg/dL
Change from baseline in HDL-C, Median [3]: 4.00 mg/dL
Change from baseline in LDL-C, ANCOVA LS mean [3]: 0.85 mg/dL
Change from baseline in LDL-C, Mean [3]: 1.75 mg/dL
Change from baseline in LDL-C, Median [3]: 0.50 mg/dL
Change from baseline in total cholesterol, ANCOVA LS mean [3]: 4.48 mg/dL
Change from baseline in total cholesterol, Mean [3]: 5.59 mg/dL
Change from baseline in total cholesterol, Median [3]: 5.50 mg/dL
Change from baseline in triglycerides, ANCOVA LS mean [3]: -8.22 mg/dL
Change from baseline in triglycerides, Mean [3]: -6.05 mg/dL
Change from baseline in triglycerides, Median [3]: -1.00 mg/dL
Fasting HDL-C, Mean [3]: 50.58 mg/dL
Fasting HDL-C, Median [3]: 48.50 mg/dL
Fasting LDL-C, Mean [3]: 73.15 mg/dL
Fasting LDL-C, Median [3]: 70.50 mg/dL
Fasting total cholesterol, Mean [3]: 140.06 mg/dL
Fasting triglycerides, Mean [3]: 113.01 mg/dL
Fasting triglycerides, Median [3]: 101.00 mg/dL
fasting Total cholesterol, Median [3]: 134.00 mg/dL
Change from baseline in diastolic blood pressure, ANCOVA LS mean [4]: −2.55 mmHg
Change from baseline in diastolic blood pressure, LS mean difference (enavogliflozin − dapagliflozin) [4]: −0.66 mmHg
Change from baseline in diastolic blood pressure, Mean [4]: −3.19 mmHg
